What was measured:
143B cells = test: Lactate release in 143B cells (proxy of glycolysis); type: cell-based; conditions: 24 h
Method: Increased lactate secretion is considered a good indicator of enhanced glycolytic rates, which is a common feature of ETC-inhibited cells as they switch from OXPHOS to glycolysis to maintain ATP levels. […] We culture 143B cells in the presence of Piericidin for 24 h and PPP activity and lactate release, as a proxy of glycolysis, were measured. As expected, lactate detection in the media was higher in CI-inhibited cells. […] Next, we wonder if in this context, glucose can be overused by glycolysis and therefore diverted away from the PPP. Diseases associated with impaired mitochondrial function negatively impact high energy demanding tissues such as the brain. As such, neurons that are highly sensitive to ETC inhibition also rely strongly on glucose metabolism. Thus, we used mouse cortical neurons to determine the rates of glycolysis and PPP as glucose levels become limiting. Control and Piericidin treated neurons where cultured in media containing supraphysiological (25 mM), physiological (5 mM) or subphysiological concentrations of glucose (2,5 mM). […] Decreased PPP activity under low glucose (2,5 mM) correlated with a rapid decline in NADPH/NADP+ levels in CI-inhibited cells. Conversely, glucose availability had no effect on ATP levels at this timepoint.

primary neurons = test: Neuronal death; type: cell-based, mouse; conditions: CI inhibition
astrocytes = test: NADPH/NADP+ levels in astrocytes; type: cell-based, mouse
Method: Primary cultures of C57BL/6 mouse cortical astrocytes were derived from postnatal day 2-3 pups. They were plated on pre-treated dishes coated with Poly-L-lysine (100 µg/ml) and cultured in DMEM/F-12 (ThermoFisher) supplemented with 15% FBS and 1% penicillin/streptomycin (P/S). After 24 hours of plating, the medium was switched to 10% FBS.
The NADP/NADP-Glo™ Assay (Promega) was employed to assess the NADP/NADPH ratio in cultured cells, following the manufacturer's instructions (Technical Bulletin Number TM400). This bioluminescent assay can detect both total oxidized and reduced nicotinamide adenine dinucleotide phosphates (NADP+ and NADPH) and determine their ratio.
Cells were cultured in 24-well plates (Falcon®) at varying concentrations depending on the cell type and the specific experiment. After removing the media, we added 100 µl of PBS 1X per well and lysed the cells by introducing 100 µl of a base solution with 1% DTAB (1:1 ratio). To adapt the volumes for a 96-well plate, we divided the 200 µl total into two parts, allocating 50 µl for measuring NADP+ and 50 µl for NADPH in separate positions on the plate, allowing us to measure both NADP and NADPH levels. The assay was then carried out as per the standard protocol. Luminescence was measured using the CLARIOstar Plus plate reader from BMG LABTECH.

cortical neurons = test: ATP measurement in live neurons (FRET ATP biosensor); type: cell-based, rats; conditions: soma or axons, 100 nM, 24 h
Method: ATP measurements was performed in primary co-cultures of cortical neurons and astrocytes from P1-2 wild-type rats of the Sprague-Dawley strain Crl:CD(SD), which are bred by Charles River Laboratories following the international genetic standard protocol (IGS). All experiments were carried out in strict accordance with the guidelines of the European Directive 2010/63/EU and the French Decree n° 2013- 118 concerning the protection of animals used for scientific purposes. Neurons were plate on poly- ornithine (Sigma-Aldrich, P3655) coated coverslips and maintained in culture media composed by MEM (Thermo Fisher Scientific, 51200-046), 20 mM Glucose (Sigma-Aldrich, G8270), 0.1 mg/mL transferrin (Sigma-Aldrich, 616420), 1% Glutamax (Thermo Fisher Scientific, 35050-038), 24 µg/mL insulin (Sigma-Aldrich, I6634), 5% FBS (Thermo Fisher Scientific, 10082-147), 2% N-21 (Bio-techne, AR008) and 4µM cytosine β-d-arabinofuranoside (Sigma-Aldrich, C6645). Cultures were incubated at 37°C in 95% air / 5% CO 2 humidified incubator.
Neurons were transfected at DIV 8 with ATeam1.03-nD/nA/pcDNA3 (gift from Takeharu Nagai (Addgene plasmid # 51958; http://n2t.net/addgene:51958; RRID:Addgene_51958)) and imaged at DIV 19. […] Fluorescence emission from ATeam was imaged using a FS 78 HE Dual camera; the exposure times were 250 ms for CFP and YFP images. […]

CC=C(C)C(O)C(C)C=C(C)C=CCC(C)=CCc1nc(OC)c(OC)c(O)c1C (centres unmarked) [Piericidin, Piericidin A]
lactate detection in the media (143B cells): higher
neuronal death (primary neurons): did not correspond to an increase
levels of NADPH (astrocytes; PC and ME1 knockdown astrocytes, 100nM, 96 h): reduced
NADPH levels (astrocytes; astrocytes, 100 nM, 24 h): did not cause any alteration
ATP (genetically encoded biosensor) (cortical neurons): did not altered

From EP4653001A1, “TREATMENT, DIAGNOSIS AND/OR PROGNOSIS OF MITOCHONDRIAL DISEASES” (Universidad Autónoma de Madrid, priority 2024, dated 2025)
